One compound from paper PMC11897524 (Frontiers in Pharmacology, 2025) can be followed below.

The structures appear in SMILES notation.

The target in one data set is INSR (Homo sapiens, UniProt P06213). The data set can be described thus: SelectScreen Z′-LYTE kinase assay. Format: biochemical. Summed up:
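FRET-based Z′-LYTE format; 60 min kinase reaction at room temperature with compound in 1% DMSO. IC50 calculated from a sigmoidal dose-response model.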

In a further data set the target is STAT5b (Homo sapiens, UniProt P51692). In words: Binding affinity to BET and STAT family members.
Data set [1] deals with p-STAT3 and c-myc protein. The data set can be described thus: Western blot on xenograft tumor tissues. Format: in vivo, BALB/c nude mice. Particulars: xenograft tumor tissue. The method, then:
For the assessment of protein expression levels, Western blot analysis was conducted following a standardized protocol ([Zhou et al., 2022]). The CAKI-2 cells were initially rinsed with PBS to remove any residual culture medium. Subsequently, cells were lysed using a RIPA buffer supplemented with 1 mM phenylmethylsulfonyl fluoride (PMSF), and the lysate was incubated on ice for a duration of 1 h. The lysate was centrifuged at a speed of 13,000 rpm for 30 min at 4°C. Protein concentrations were quantified using a BCA protein assay kit (Beyotime, Shanghai, China), ensuring equal protein loading for each sample. Samples were then resolved by SDS-PAGE and transferred onto a polyvinylidene difluoride (PVDF) membrane. Subsequently, the membrane was blocked with 3% BSA in PBS at room temperature for 2 h and incubated overnight with the corresponding antibody at 4°C. […] The specific protein bands were visualized using ECL detection system (Tanon, Shanghai, China), and the band intensities were quantified using ImageJ software.
To further investigate the in vivo effects of BST-4, 6–8 weeks male BALB/c nude mice were obtained by Changzhou Cavens Experimental Animal Co., Ltd. (Changzhou, China). […] The tumor volume of mice was measured every 2 days and calculated according to the formula: (c × c × d)/2, where c and d represent the minimum diameter and maximum diameter, respectively. […]

A short description of data set [2]: Hematology parameters of treated mice. Format: in vivo, BALB/c nude mice. Conditions: BST-4-treated vs vehicle groups. As for the experimental part: To further investigate the in vivo effects of BST-4, 6–8 weeks male BALB/c nude mice were obtained by Changzhou Cavens Experimental Animal Co., Ltd. (Changzhou, China). The mice were acclimatized to the laboratory environment for a week before the experiment. The housing conditions were maintained at a temperature of 22°C ± 2°C, a relative humidity of 50%–60%, and a 12-h light/dark cycle. 0.1 mL of CAKI-2cell suspension (1 × 10⁶ cells) was subcutaneously injected into the right flank of each mouse. […] The vehicle group was injected with a vehicle solution consisting of 5% DMSO and PBS. The tumor volume of mice was measured every 2 days and calculated according to the formula: (c × c × d)/2, where c and d represent the minimum diameter and maximum diameter, respectively. All animal experiments were performed and approved by the Ethics Committee of China Pharmaceutical University.
FIGURE 12 Hematology parameters of mice in the BST-4-treated groups and vehicle groups. (A) White blood cell (WBC); (B) Red blood cells (RBC); (C) Platelets (PLT); (D) Hemoglobin (HGB). Data are presented as the mean ± SD, n = 5.

In a further data set the target is STAT3 (Homo sapiens, UniProt P40763). The data set can be described thus: Microscale thermophoresis (MST) assay. Format: binding. The arrangement: purchased Abcam. The method, then:
The MST experiments were performed using the Monolith NT.115 instrument. BRD4 and STAT3 proteins were labeled with the Lys labeling kit at the final concentration of 100 nM. The compounds, previously suspended in 100% DMSO, were diluted in a buffer containing 20 mM Tris·HCl (pH 7.5), 100 mM NaCl, and 3 mM DTT, achieving a final DMSO concentration of 5%. The compounds were gradient-diluted in 1:1 dilution and starting from 100 μM. The samples were loaded into MST-standard glass capillaries. All the measurements were performed in triplicate using automatically assigned 50% MST power and 20% LED power. Data analysis was performed using GraphPad Prism 7.0 software.
(In general: MST reads how a fluorescent partner responds to local heating, with and without ligand.)

STAT3, sequence (P40763 whole entry): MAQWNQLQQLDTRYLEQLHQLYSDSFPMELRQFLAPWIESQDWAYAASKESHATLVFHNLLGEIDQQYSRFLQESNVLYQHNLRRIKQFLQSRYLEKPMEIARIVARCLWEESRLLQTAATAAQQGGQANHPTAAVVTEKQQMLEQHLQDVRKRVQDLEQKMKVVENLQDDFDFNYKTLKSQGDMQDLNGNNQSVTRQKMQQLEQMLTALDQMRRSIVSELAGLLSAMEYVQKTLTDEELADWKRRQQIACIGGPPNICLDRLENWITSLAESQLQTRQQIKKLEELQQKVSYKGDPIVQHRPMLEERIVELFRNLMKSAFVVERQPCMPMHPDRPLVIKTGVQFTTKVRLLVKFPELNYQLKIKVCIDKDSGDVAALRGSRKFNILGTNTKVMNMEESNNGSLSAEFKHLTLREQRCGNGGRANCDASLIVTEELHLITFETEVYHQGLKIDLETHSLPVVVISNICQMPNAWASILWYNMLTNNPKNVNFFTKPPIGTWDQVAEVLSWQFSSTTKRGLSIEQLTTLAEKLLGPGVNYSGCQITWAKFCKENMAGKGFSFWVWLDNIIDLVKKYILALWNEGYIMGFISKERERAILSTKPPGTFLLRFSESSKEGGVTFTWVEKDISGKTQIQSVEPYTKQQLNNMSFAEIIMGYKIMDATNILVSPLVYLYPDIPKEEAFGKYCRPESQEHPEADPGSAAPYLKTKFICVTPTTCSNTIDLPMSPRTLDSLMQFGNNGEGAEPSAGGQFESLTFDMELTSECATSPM
INSR, sequence (P06213 28-1382): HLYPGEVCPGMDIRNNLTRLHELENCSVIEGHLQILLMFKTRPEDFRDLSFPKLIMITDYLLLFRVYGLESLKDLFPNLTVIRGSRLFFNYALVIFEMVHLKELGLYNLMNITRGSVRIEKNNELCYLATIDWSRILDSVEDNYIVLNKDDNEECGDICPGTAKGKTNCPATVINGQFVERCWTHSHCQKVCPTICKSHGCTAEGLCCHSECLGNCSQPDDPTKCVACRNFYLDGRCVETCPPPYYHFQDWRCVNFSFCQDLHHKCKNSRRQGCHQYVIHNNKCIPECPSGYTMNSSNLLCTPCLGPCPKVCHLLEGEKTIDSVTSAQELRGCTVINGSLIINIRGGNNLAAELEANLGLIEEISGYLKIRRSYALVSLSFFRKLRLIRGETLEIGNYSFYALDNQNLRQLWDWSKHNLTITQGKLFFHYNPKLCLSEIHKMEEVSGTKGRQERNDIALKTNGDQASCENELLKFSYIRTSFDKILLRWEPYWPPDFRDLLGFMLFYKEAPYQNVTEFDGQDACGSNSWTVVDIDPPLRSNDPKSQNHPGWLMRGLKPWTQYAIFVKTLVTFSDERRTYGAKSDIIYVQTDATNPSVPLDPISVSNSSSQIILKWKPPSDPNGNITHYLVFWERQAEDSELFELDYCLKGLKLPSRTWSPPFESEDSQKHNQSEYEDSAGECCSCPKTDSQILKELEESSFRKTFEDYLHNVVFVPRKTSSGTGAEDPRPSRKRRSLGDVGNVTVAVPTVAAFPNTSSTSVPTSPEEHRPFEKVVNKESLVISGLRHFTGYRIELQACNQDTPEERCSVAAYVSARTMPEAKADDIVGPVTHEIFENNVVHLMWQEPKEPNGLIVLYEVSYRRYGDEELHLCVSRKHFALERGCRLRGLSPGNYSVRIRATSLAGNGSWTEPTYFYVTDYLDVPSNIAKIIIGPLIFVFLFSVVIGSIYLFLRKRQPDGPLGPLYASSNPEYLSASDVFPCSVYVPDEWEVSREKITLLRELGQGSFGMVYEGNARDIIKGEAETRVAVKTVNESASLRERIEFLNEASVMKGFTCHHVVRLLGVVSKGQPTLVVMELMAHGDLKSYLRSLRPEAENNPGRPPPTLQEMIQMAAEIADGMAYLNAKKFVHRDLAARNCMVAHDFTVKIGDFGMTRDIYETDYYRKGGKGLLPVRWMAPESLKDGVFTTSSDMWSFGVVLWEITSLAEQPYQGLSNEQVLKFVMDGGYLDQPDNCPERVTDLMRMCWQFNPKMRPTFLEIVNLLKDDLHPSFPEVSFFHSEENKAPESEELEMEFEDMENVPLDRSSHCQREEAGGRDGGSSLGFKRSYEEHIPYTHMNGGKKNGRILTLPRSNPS
STAT5b, sequence (P51692 whole entry): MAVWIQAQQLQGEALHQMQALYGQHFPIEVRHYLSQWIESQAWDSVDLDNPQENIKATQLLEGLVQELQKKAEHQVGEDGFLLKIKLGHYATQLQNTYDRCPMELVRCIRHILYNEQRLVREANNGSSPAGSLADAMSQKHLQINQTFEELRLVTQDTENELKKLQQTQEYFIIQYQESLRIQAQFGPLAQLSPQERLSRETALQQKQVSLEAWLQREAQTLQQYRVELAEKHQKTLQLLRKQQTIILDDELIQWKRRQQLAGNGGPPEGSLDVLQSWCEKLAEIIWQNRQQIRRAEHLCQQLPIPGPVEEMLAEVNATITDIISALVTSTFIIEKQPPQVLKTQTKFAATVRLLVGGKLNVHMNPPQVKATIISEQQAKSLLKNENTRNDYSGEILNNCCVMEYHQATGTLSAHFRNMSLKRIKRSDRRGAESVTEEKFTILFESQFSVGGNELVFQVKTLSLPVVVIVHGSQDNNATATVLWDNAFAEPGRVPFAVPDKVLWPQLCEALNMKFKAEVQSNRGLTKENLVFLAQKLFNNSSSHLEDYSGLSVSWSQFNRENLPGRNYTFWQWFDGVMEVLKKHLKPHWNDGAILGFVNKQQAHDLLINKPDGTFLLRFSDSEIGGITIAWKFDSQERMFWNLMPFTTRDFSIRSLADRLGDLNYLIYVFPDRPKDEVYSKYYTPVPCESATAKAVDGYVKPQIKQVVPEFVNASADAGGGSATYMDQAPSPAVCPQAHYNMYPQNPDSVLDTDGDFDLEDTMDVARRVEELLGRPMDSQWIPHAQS

Turning to `CCS(=O)(=O)Cc1cnc(Oc2c(F)cc(F)cc2OCCCCOc2ccc(/C=C/c3cc(OC)cc(OC)c3)cc2)c(-c2cc(C)c3c(=O)[nH]ccn23)c1` [BST-4], on INSR, the half-inhibitory concentration (IC50) is more than 10 µM and the inhibition at 1 µM was found to be 2.53%. Besides, the Kd at STAT5b is more than 10 µM. For the same compound, in data set [1], the “c-myc protein expression level in tumor tissues” value is reported as “significantly downregulated” and the “p-STAT3 protein expression level in tumor tissues” value is listed as “significantly downregulated”. The “levels of representative hematological markers (WBC, RBC, PLT, HGB) vs vehicle” value in data set [2] is given as “no significant differences”. The “STAT3 binding affinity relative to CJ-1383” value on STAT3 (Kd ratio vs CJ-1383, MST) is on record as 211 fold. Moreover, binding on STAT3 (MST) was put at a Kd of 0.00428 ± 0.00059 µM.

Broadly, the IC50 is the concentration at which inhibition is half-maximal. Read a high IC50 as a need for much substance. One may read the inhibition as the drop in the measured response relative to a control, in per cent. A lower inhibition goes with a weak effect. Broadly, the Kd is the constant that tells how readily two partners part at equilibrium. High values mean weaker binding, low ones tighter binding.
